Literature values, collected in patent US20140235496A1, “STIMULUS-ELICITED GENOMIC PROFILE MARKERS OF A NEURODEGENERATIVE CONDITION” (Blanchette Rockefeller Neurosciences Institute, priority 2011, published 2014).

Test system: PKC
Details: shown to be effective; see US 2010/0022645

Question: With `CCC1CC1CC1CC1CC1CC1CC1CC1CC1CC1CC1CC1CCC(=O)O` (stereo not shown) [DHA-CP6] as the molecule, how does the effective concentration read?
Answer: The effective concentration was 10 nM.
